Among the data in patent publication US20260176320A1, “MODULATORS OF G-PROTEIN COUPLED RECEPTORS” (priority 2018, published 2026) are Emax and EC50 values, retold here.

One test deals with GLP-1R (Homo sapiens, UniProt P43220). Briefly: HitHunter cAMP assay (GLP-1R). The format is cell-based. To be noted: cAMP; for Emax: read-out: (Emax) GLP-1R. The essentials:
(§1)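 Cells were resuspended in HBSS plus HEPES, IBMX (625 μM) and BSA, then dispensed with antibody at 10,000 per well. Agonists followed as 22-point twofold series, 30 min at room temperature. Antibody reagent and detection steps ran 1 h and overnight in the dark before luminescence.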
In general terms: cAMP levels reflect the balance of adenylyl cyclase and phosphodiesterase activity.

The target in another test is T1, GIP-R (Homo sapiens, UniProt P48546).
T1 sequence (P48546 22-466): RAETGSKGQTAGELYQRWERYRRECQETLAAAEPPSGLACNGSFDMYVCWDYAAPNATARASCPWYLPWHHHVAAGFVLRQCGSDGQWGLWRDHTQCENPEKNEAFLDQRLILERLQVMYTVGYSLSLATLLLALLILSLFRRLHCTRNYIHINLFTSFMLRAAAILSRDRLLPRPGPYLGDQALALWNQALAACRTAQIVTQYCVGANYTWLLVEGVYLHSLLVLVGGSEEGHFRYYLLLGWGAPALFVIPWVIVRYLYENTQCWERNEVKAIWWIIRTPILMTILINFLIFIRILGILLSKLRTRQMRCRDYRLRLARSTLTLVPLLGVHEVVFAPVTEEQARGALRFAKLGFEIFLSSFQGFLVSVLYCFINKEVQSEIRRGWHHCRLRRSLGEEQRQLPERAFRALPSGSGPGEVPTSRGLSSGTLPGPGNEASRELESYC
Briefly: HitHunter cAMP assay (GIP-R). The format is cell-based. To be noted: cAMP; for Emax: read-out: (Emax) GIP-R. The essentials: as §1

The mark [1] stands for this setting: Table 3, read-out: EC50 GLP-1R/nM.
The mark [2] stands for this setting: Table 3A, read-out: EC50 GLP-1R/nM.
[3] abbreviates: Table 3A, read-out: EC50 GIP-R/nM.

The structures appear in SMILES notation. Read-outs that look alike come from different tables or passages of the source.

GLP-1R, sequence (P43220 24-463): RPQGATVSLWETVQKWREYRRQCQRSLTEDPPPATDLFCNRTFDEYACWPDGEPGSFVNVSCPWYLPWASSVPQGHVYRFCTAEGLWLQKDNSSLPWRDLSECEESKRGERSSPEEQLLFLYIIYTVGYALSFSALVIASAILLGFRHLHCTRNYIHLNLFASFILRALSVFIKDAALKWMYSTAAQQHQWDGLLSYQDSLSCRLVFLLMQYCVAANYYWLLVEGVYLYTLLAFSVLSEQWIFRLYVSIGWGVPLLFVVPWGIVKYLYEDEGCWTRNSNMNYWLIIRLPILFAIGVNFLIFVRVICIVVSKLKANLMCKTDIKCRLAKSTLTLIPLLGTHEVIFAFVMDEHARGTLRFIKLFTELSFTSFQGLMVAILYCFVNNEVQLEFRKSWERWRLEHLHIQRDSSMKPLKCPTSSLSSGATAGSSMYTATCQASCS

In the case of `CCCCCCCCCCCCCCCC(=O)N[C@@H](CCC(=O)NCCCC[C@H](NC(=O)[C@H](CO)NC(=O)[C@@H]1CCCN1C(=O)[C@@H]1CCCN1C(=O)[C@@H]1CCCN1C(=O)[C@H](C)NC(=O)CNC(=O)[C@H](CO)NC(=O)[C@H](CO)NC(=O)[C@@H]1CCCN1C(=O)CNC(=O)CNC(=O)[C@H](C)NC(=O)[C@H](CC(C)C)NC(=O)[C@H](CC(C)C)NC(=O)[C@H](Cc1c[nH]c2ccccc12)NC(=O)[C@H](CC(N)=O)NC(=O)[C@@H](NC(=O)[C@H](Cc1ccccc1)NC(=O)[C@H](CCC(=O)O)NC(=O)C(C)(C)NC(=O)[C@H](C)NC(=O)[C@H](C)NC(=O)[C@H](CCC(N)=O)NC(=O)[C@H](CCCCN)NC(=O)[C@H](CC(=O)O)NC(=O)[C@H](CC(C)C)NC(=O)[C@H](Cc1ccc(O)cc1)NC(=O)[C@@H](NC(=O)[C@H](CO)NC(=O)[C@H](Cc1ccc(O)cc1)NC(=O)[C@H](CC(=O)O)NC(=O)[C@H](CO)NC(=O)[C@@H](NC(=O)[C@H](Cc1ccccc1)NC(=O)[C@@H](NC(=O)CNC(=O)[C@H](CCC(=O)O)NC(=O)CSCC(=O)NCCC1=CCCC1)[C@@H](C)O)[C@@H](C)O)[C@@H](C)CC)C(C)C)C(N)=O)C(=O)O` [Compound 54], the Emax on GLP-1R (Table 3) and at GLP-1R (Table 3A) was 107% each time. The EC50 on GLP-1R (setting [1]) and on GLP-1R (setting [2]) was below 0.1 nM in each case. In addition, the Emax – broadly, the greatest response seen or fitted, relative to the assay's reference – at 1 µM at GIP-R (read-out: (Emax) GIP-R at 1 μM, Table 3, at 1 μM) turned out to be 6%.
For the molecule `CCCCCCCCCCCCCCCC(=O)N[C@@H](CCC(=O)NCCCC[C@H](NC(=O)[C@H](CO)NC(=O)[C@@H]1CCCN1C(=O)[C@@H]1CCCN1C(=O)[C@@H]1CCCN1C(=O)[C@H](C)NC(=O)CNC(=O)[C@H](CO)NC(=O)[C@H](CO)NC(=O)[C@@H]1CCCN1C(=O)CNC(=O)CNC(=O)[C@H](C)NC(=O)[C@H](CC(C)C)NC(=O)[C@H](CC(C)C)NC(=O)[C@H](Cc1c[nH]c2ccccc12)NC(=O)[C@H](CC(N)=O)NC(=O)[C@@H](NC(=O)[C@H](Cc1ccccc1)NC(=O)[C@H](CCC(=O)O)NC(=O)C(C)(C)NC(=O)[C@H](C)NC(=O)[C@H](C)NC(=O)[C@H](CCC(N)=O)NC(=O)[C@H](CCCCN)NC(=O)[C@H](CC(=O)O)NC(=O)[C@H](CC(C)C)NC(=O)[C@H](Cc1ccc(O)cc1)NC(=O)[C@@H](NC(=O)[C@H](CO)NC(=O)[C@H](Cc1ccc(O)cc1)NC(=O)[C@H](CC(=O)O)NC(=O)[C@H](CO)NC(=O)[C@@H](NC(=O)[C@H](Cc1ccccc1)NC(=O)[C@@H](NC(=O)CNC(=O)[C@H](CCC(=O)O)NC(=O)CSCC(=O)NCCN1C(=O)C[C@H](O)C1=O)[C@@H](C)O)[C@@H](C)O)[C@@H](C)CC)C(C)C)C(N)=O)C(=O)O` [Compound 78], the EC50 on GLP-1R (EC50 GLP-1R/nM, Table 3) was 0.1 to 1 nM; on GLP-1R (EC50 GLP-1R/nM, Table 3A), 0.1 to 1 nM; at GIP-R (EC50 GIP-R/nM, Table 3) it was 1 to 10 nM; at GIP-R (EC50 GIP-R/nM, Table 3A), 1 to 10 nM. Also, the maximal effect (Emax) on GLP-1R (Table 3) worked out at 94%; on GLP-1R (Table 3A), 94%; at GIP-R (Table 3) it was 58%; at GIP-R (Table 3A) it was 58%.
As to `CCCCCCCCCCCCCCCC(=O)N[C@@H](CCC(=O)NCCCC[C@H](NC(=O)[C@H](CO)NC(=O)[C@@H]1CCCN1C(=O)[C@@H]1CCCN1C(=O)[C@@H]1CCCN1C(=O)[C@H](C)NC(=O)CNC(=O)[C@H](CO)NC(=O)[C@H](CO)NC(=O)[C@@H]1CCCN1C(=O)CNC(=O)CNC(=O)[C@H](C)NC(=O)[C@H](CC(C)C)NC(=O)[C@H](CC(C)C)NC(=O)[C@H](Cc1c[nH]c2ccccc12)NC(=O)[C@H](CC(N)=O)NC(=O)[C@@H](NC(=O)[C@H](Cc1ccccc1)NC(=O)[C@H](CCC(=O)O)NC(=O)C(C)(C)NC(=O)[C@H](C)NC(=O)[C@H](C)NC(=O)[C@H](CCC(N)=O)NC(=O)[C@H](CCCCN)NC(=O)[C@H](CC(=O)O)NC(=O)[C@H](CC(C)C)NC(=O)[C@H](Cc1ccc(O)cc1)NC(=O)[C@@H](NC(=O)[C@H](CO)NC(=O)[C@H](Cc1ccc(O)cc1)NC(=O)[C@H](CC(=O)O)NC(=O)[C@H](CO)NC(=O)[C@@H](NC(=O)[C@H](Cc1ccccc1)NC(=O)[C@@H](NC(=O)CNC(=O)[C@H](CCC(=O)O)NC(=O)C(C)(C)C(=O)NCCn1ccccc1=O)[C@@H](C)O)[C@@H](C)O)[C@@H](C)CC)C(C)C)C(N)=O)C(=O)O` [Compound 254], the EC50 on GLP-1R (setting [2]) is below 0.1 nM; on GIP-R (setting [3]), 1 to 10 nM. The Emax at GIP-R (Table 3A) came to 80%.
As for `CC[C@H](C)[C@H](NC(=O)[C@H](CO)NC(=O)[C@H](Cc1ccc(O)cc1)NC(=O)[C@H](CC(=O)O)NC(=O)[C@H](CO)NC(=O)[C@@H](NC(=O)[C@H](Cc1ccccc1)NC(=O)[C@@H](NC(=O)CNC(=O)[C@H](CCC(=O)O)NC(=O)CSCC(=O)NCCN1C(=O)c2ccc([N+](=O)[O-])cc2C1=O)[C@@H](C)O)[C@@H](C)O)C(=O)N[C@@H](Cc1ccc(O)cc1)C(=O)N[C@@H](CC(C)C)C(=O)N[C@@H](CC(=O)O)C(=O)N[C@@H](CCCCN)C(=O)N[C@@H](CCC(N)=O)C(=O)N[C@@H](C)C(=O)N[C@@H](C)C(=O)NC(C)(C)C(=O)N[C@@H](CCC(=O)O)C(=O)N[C@@H](Cc1ccccc1)C(=O)N[C@H](C(=O)N[C@@H](CC(N)=O)C(=O)N[C@@H](Cc1c[nH]c2ccccc12)C(=O)N[C@@H](CC(C)C)C(=O)N[C@@H](CC(C)C)C(=O)N[C@@H](C)C(=O)NCC(=O)NCC(=O)N1CCC[C@H]1C(=O)N[C@@H](CO)C(=O)N[C@@H](CO)C(=O)NCC(=O)N[C@@H](C)C(=O)N1CCC[C@H]1C(=O)N1CCC[C@H]1C(=O)N1CCC[C@H]1C(=O)N[C@@H](CO)C(=O)N[C@@H](CCCCN)C(N)=O)C(C)C` [Compound 107], the EC50 at GLP-1R (EC50 GLP-1R/nM, Table 3) lay within 10 to 100 nM; at GLP-1R (EC50 GLP-1R/nM, Table 3A) it was 10 to 100 nM; at GIP-R (EC50 GIP-R/nM, Table 3) it was 0.1 to 1 nM; on GIP-R (EC50 GIP-R/nM, Table 3A), 0.1 to 1 nM. Also, the Emax came out at 57% at GLP-1R (Table 3), 57% on GLP-1R (Table 3A), 124% on GIP-R (Table 3) and 124% on GIP-R (Table 3A).
In the case of `CCCCCCCCCCCCCCCC(=O)N[C@@H](CCC(=O)NCCCC[C@H](NC(=O)[C@H](CO)NC(=O)[C@@H]1CCCN1C(=O)[C@@H]1CCCN1C(=O)[C@@H]1CCCN1C(=O)[C@H](C)NC(=O)CNC(=O)[C@H](CO)NC(=O)[C@H](CO)NC(=O)[C@@H]1CCCN1C(=O)CNC(=O)CNC(=O)[C@H](C)NC(=O)[C@H](CC(C)C)NC(=O)[C@H](CC(C)C)NC(=O)[C@H](Cc1c[nH]c2ccccc12)NC(=O)[C@H](CC(N)=O)NC(=O)[C@@H](NC(=O)[C@H](Cc1ccccc1)NC(=O)[C@H](CCC(=O)O)NC(=O)C(C)(C)NC(=O)[C@H](C)NC(=O)[C@H](C)NC(=O)[C@H](CCC(N)=O)NC(=O)[C@H](CCCCN)NC(=O)[C@H](CC(=O)O)NC(=O)[C@H](CC(C)C)NC(=O)[C@H](Cc1ccc(O)cc1)NC(=O)[C@@H](NC(=O)[C@H](CO)NC(=O)[C@H](Cc1ccc(O)cc1)NC(=O)[C@H](CC(=O)O)NC(=O)[C@H](CO)NC(=O)[C@@H](NC(=O)[C@H](Cc1ccccc1)NC(=O)[C@@H](NC(=O)CNC(=O)[C@H](CCC(=O)O)NC(=O)CSCC(=O)NCCN1C(=O)C2=C(CCCC2)C1=O)[C@@H](C)O)[C@@H](C)O)[C@@H](C)CC)C(C)C)C(N)=O)C(=O)O` [Compound 100], the EC50 on GLP-1R (EC50 GLP-1R/nM, Table 3) lay in the range of 10 to 100 nM; at GLP-1R (EC50 GLP-1R/nM, Table 3A), 10 to 100 nM; at GIP-R (EC50 GIP-R/nM, Table 3), 1 to 10 nM; at GIP-R (EC50 GIP-R/nM, Table 3A), 1 to 10 nM. Besides, the Emax on GLP-1R (Table 3) is 95%; at GLP-1R (Table 3A) it was 95%; on GIP-R (Table 3) it was 100%; on GIP-R (Table 3A), 100%.
Turning to `CCCCCCCCCCCCCCCC(=O)N[C@@H](CCC(=O)NCCCC[C@H](NC(=O)[C@H](CO)NC(=O)[C@@H]1CCCN1C(=O)[C@@H]1CCCN1C(=O)[C@@H]1CCCN1C(=O)[C@H](C)NC(=O)CNC(=O)[C@H](CO)NC(=O)[C@H](CO)NC(=O)[C@@H]1CCCN1C(=O)CNC(=O)CNC(=O)[C@H](C)NC(=O)[C@H](CC(C)C)NC(=O)[C@H](CC(C)C)NC(=O)[C@H](Cc1c[nH]c2ccccc12)NC(=O)[C@H](CC(N)=O)NC(=O)[C@@H](NC(=O)[C@H](Cc1ccccc1)NC(=O)[C@H](CCC(=O)O)NC(=O)C(C)(C)NC(=O)[C@H](C)NC(=O)[C@H](C)NC(=O)[C@H](CCC(N)=O)NC(=O)[C@H](CCCCN)NC(=O)[C@H](CC(=O)O)NC(=O)[C@H](CC(C)C)NC(=O)[C@H](Cc1ccc(O)cc1)NC(=O)[C@@H](NC(=O)[C@H](CO)NC(=O)[C@H](Cc1ccc(O)cc1)NC(=O)[C@H](CC(=O)O)NC(=O)[C@H](CO)NC(=O)[C@@H](NC(=O)[C@H](Cc1ccccc1)NC(=O)[C@@H](NC(=O)CNC(=O)[C@H](CCC(=O)O)NC(=O)CSCC(=O)NCCn1ccccc1=O)[C@@H](C)O)[C@@H](C)O)[C@@H](C)CC)C(C)C)C(N)=O)C(=O)O` [Compound 52], the maximum response (Emax) on GLP-1R (Table 3) was 101%; at GLP-1R (Table 3A), 101%; at GIP-R (Table 3) it was 56 to 61%; at GIP-R (Table 3A), 56 to 61%. Further, the EC50 at GLP-1R (setting [1]) was below 0.1 nM; on GLP-1R (setting [2]), below 0.1 nM; at GIP-R (Table 3, read-out: EC50 GIP-R/nM), 1 to 10 nM; at GIP-R (setting [3]) it was 1 to 10 nM.
